Experiment: Ocular pharmacokinetic study of CLX-156 formulation, topical administration in each eye
Assay type: in vivo, male New Zealand white rabbits
Details: rabbit, topical 50 μL in each eye
Description: A pharmacokinetics study was conducted on male New Zealand white rabbits to evaluate the ocular pharmacokinetics of CLX-156 (Pilocarpine-(R)-Lipoate) formulation. Animals were topically administered with 50 μL of CLX-156 in each eye, and the aqueous humour and blood samples were collected followed by sacrifice of the animals for collection of lens, cornea and iris region at a pre-determined time.
The aqueous humour and tissue concentration of Pilocarpine and (R)-Lipoic acid were measured at 0.5 h, 1 h, 2 h, 4 h and 8 h in 3 animals/time point/group (as provided in Table 2 and Table 3 hereinbelow). Further, (R)-Lipoic acid concentration was measured in the lens region, and Pilocarpine concentration was measured in iris region of each of the treated animals (as provided in Table 2 and Table 3). All the samples were analyzed using LCMS-MS by a fit for purpose method.

[1] = analyte (R)-Lipoic acid, aqueous humour
[2] = analyte (R)-Lipoic acid, lens region
[3] = analyte Pilocarpine, aqueous humour
[4] = analyte Pilocarpine, iris region

5-(((3R,4S)-4-ethyl-5-oxotetrahydro furan-3-yl)methyl)-1-methyl-1H-imidazol-1-ium (R)-5-(1,2-dithiolan-3-yl)pentanoate [CLX-156]
AUClast, (R)-Lipoic acid in aqueous humour [1]: 17271 ng·h/mL | Cmax, concentration of (R)-Lipoic acid in aqueous humour [1]: 21067 ng/mL | Tmax, (R)-Lipoic acid in aqueous humour [1]: 30 min | AUClast, (R)-Lipoic acid in lens region [2]: 0.364 µg·h/g | Tmax, (R)-Lipoic acid in lens region [2]: 30 min | AUClast, Pilocarpine in aqueous humour [3]: 6359 ng·h/mL | Cmax, concentration of Pilocarpine in aqueous humour [3]: 6480 ng/mL | Tmax, Pilocarpine in aqueous humour [3]: 30 min | time up to which pilocarpine was detectable in aqueous humour [3]: up to 4 h | AUClast, Pilocarpine in iris region [4]: 1.491 µg·h/g | Tmax, Pilocarpine in iris region [4]: 30 min | time up to which pilocarpine was detectable in iris region [4]: up to 2 h

— patent US10933052B2, “Compositions and methods for the treatment of eye disorders” (Cellix Bio Private Limited, priority 2017, dated 2021)
